Data: PubChem BioAssay AID192 (DTP/NCI, 2004)
“And” between values parts separate entries of the source, which are not always exact repeats. Identical values can stand only once. Inconclusive results and toxic doses are left out.

System: BDF1 mice, B16 melanoma ip, median survival T/C
Assay: NCI In Vivo Anticancer Drug Screen. Data for tumor model B16 Melanoma (intraperitoneal) in B6D2F1 (BDF1) mice
Details: endpoint: median survival time, higher = longer survival
Experimental: The antitumor activity of compounds was measured in mice bearing transplantable tumors. Survival or tumor size were measured and the results are expressed as the measurement made in the treated group (T) divided by the measurement made in the vehicle treated control group (C). The tumor model used in this assay is B16 Melanoma (intraperitoneal) in B6D2F1 (BDF1) mice

[1] = dose: 6.25 mg/kg/injection, schedule: Q01DX009 (ip), vehicle: saline with Tween-80
[2] = dose: 12.5 mg/kg/injection, schedule: Q01DX009 (ip), vehicle: saline with Tween-80
[3] = dose: 25.0 mg/kg/injection, schedule: Q01DX009 (ip), vehicle: saline with Tween-80
[4] = dose: 50.0 mg/kg/injection, schedule: Q01DX009 (ip), vehicle: saline with Tween-80
[5] = dose: 25.0 mg/kg/injection, schedule: Q01DX009 (ip), vehicle: Klucel (hydroxypropylcellulose) (HPC)
[6] = dose: 50.0 mg/kg/injection, schedule: Q01DX009 (ip), vehicle: Klucel (hydroxypropylcellulose) (HPC)
[7] = dose: 100.0 mg/kg/injection, schedule: Q01DX009 (ip), vehicle: Klucel (hydroxypropylcellulose) (HPC)
[8] = dose: 100.0 mg/kg/injection, schedule: Q01DX009 (ip), vehicle: saline with Tween-80
[9] = dose: 200.0 mg/kg/injection, schedule: Q01DX009 (ip), vehicle: Klucel (hydroxypropylcellulose) (HPC)
[10] = dose: 400.0 mg/kg/injection, schedule: Q01DX009 (ip), vehicle: Klucel (hydroxypropylcellulose) (HPC)
[11] = dose: 6.25 mg/kg/injection, schedule: Q01DX009 (ip), vehicle: Klucel (hydroxypropylcellulose) (HPC)
[12] = dose: 12.5 mg/kg/injection, schedule: Q01DX009 (ip), vehicle: Klucel (hydroxypropylcellulose) (HPC)
[13] = dose: 1.56 mg/kg/injection, schedule: Q01DX009 (ip), vehicle: Klucel (hydroxypropylcellulose) (HPC)
[14] = dose: 3.12 mg/kg/injection, schedule: Q01DX009 (ip), vehicle: Klucel (hydroxypropylcellulose) (HPC)
[15] = dose: 50.0 mg/kg/injection, schedule: Q01DX009 (ip), vehicle: other
[16] = dose: 100.0 mg/kg/injection, schedule: Q01DX009 (ip), vehicle: other
[17] = dose: 100.0 mg/kg/injection, schedule: Q04DX003 (ip), vehicle: saline with Tween-80
[18] = dose: 200.0 mg/kg/injection, schedule: Q04DX003 (ip), vehicle: saline with Tween-80

SMILES: Cc1c2cc(Cl)c3ccccc3c2c[n+]2ccccc12
- T/C (dose: 3.12 mg/kg/injection, schedule: Q01DX009 (ip), vehicle: saline with Tween-80): 110 % of control
- T/C [1]: 113 % of control
- T/C [2]: 110 % of control
- T/C [3]: 115 % of control
- T/C [4]: 115 % of control

SMILES: CCC[CH2][Sn](=[S])[CH2]CCC
- T/C (dose: 0.78 mg/kg/injection, schedule: Q01DX009 (ip), vehicle: saline): 98 % of control
- T/C (dose: 1.56 mg/kg/injection, schedule: Q01DX009 (ip), vehicle: saline): 102 % of control
- T/C (dose: 6.25 mg/kg/injection, schedule: Q01DX009 (ip), vehicle: other): 97 % of control
- T/C [1]: 109 % of control
- T/C (dose: 6.25 mg/kg/injection, schedule: Q01DX009 (ip), vehicle: saline): 107 % of control
- T/C (dose: 6.25 mg/kg/injection, schedule: Q04DX003 (ip), vehicle: other): 105 % of control

SMILES: C=CCN(C)N=Nc1ccc(C(N)=O)cc1
- T/C [5]: 105 % of control
- T/C [6]: 110 % of control
- T/C [7]: 107 % of control

SMILES: O=NN(CCCl)C(=O)NC1CCC(=O)NC1=O (stereo unspecified)
- T/C (dose: 0.09 mg/kg/injection, schedule: Q01DX009 (ip), vehicle: saline): 114 % of control
- T/C (dose: 0.18 mg/kg/injection, schedule: Q01DX009 (ip), vehicle: saline): 111 % of control
- T/C (dose: 0.35 mg/kg/injection, schedule: Q01DX009 (ip), vehicle: saline): 118 % of control
- T/C (dose: 0.7 mg/kg/injection, schedule: Q01DX009 (ip), vehicle: saline): 114 % of control
- T/C (dose: 1.0 mg/kg/injection, schedule: Q01DX009 (ip), vehicle: saline with Tween-80): 119 % of control
- T/C (dose: 1.1 mg/kg/injection, schedule: Q01DX009 (ip), vehicle: saline): 152 % of control
- T/C (dose: 1.6 mg/kg/injection, schedule: Q01DX009 (ip), vehicle: saline): 165 % of control
- T/C (dose: 2.0 mg/kg/injection, schedule: Q01DX009 (ip), vehicle: saline with Tween-80): 161 % of control
- T/C (dose: 4.0 mg/kg/injection, schedule: Q01DX009 (ip), vehicle: saline with Tween-80): 193 % of control
- T/C (dose: 7.5 mg/kg/injection, schedule: Q01DX001 (ip), vehicle: saline + alcohol): 166 % of control
- T/C (dose: 8.0 mg/kg/injection, schedule: Q01DX009 (ip), vehicle: saline with Tween-80): 123 % of control
- T/C (dose: 15.0 mg/kg/injection, schedule: Q01DX001 (ip), vehicle: saline + alcohol): 245 % of control
- T/C (dose: 16.0 mg/kg/injection, schedule: Q01DX009 (ip), vehicle: saline with Tween-80): 93 % of control

SMILES: O=C(CCl)Nc1nccs1
- T/C [2]: 103 % of control
- T/C [3]: 100 % of control
- T/C [4]: 93 % of control
- T/C [8]: 87 % of control

SMILES: Cc1cc(C(=O)NNC(C)Cc2ccccc2)no1 (stereo unspecified)
- T/C (dose: 4.6 mg/kg/injection, schedule: Q01DX009 (ip), vehicle: saline): 95 % of control
- T/C (dose: 9.3 mg/kg/injection, schedule: Q01DX009 (ip), vehicle: saline): 100 % of control
- T/C (dose: 18.75 mg/kg/injection, schedule: Q01DX009 (ip), vehicle: saline): 102 % of control
- T/C (dose: 37.5 mg/kg/injection, schedule: Q01DX009 (ip), vehicle: saline): 120 % of control

SMILES: O=Nc1c(N=O)c(N=O)c(N=O)c(N=O)c1N=O
- T/C (dose: 1.25 mg/kg/injection, schedule: Q01DX009 (ip), vehicle: saline with Tween-80): 108 % of control
- T/C (dose: 2.5 mg/kg/injection, schedule: Q01DX009 (ip), vehicle: saline with Tween-80): 105 % of control
- T/C (dose: 5.0 mg/kg/injection, schedule: Q01DX009 (ip), vehicle: saline with Tween-80): 88 % of control and 100 % of control
- T/C (dose: 10.0 mg/kg/injection, schedule: Q01DX009 (ip), vehicle: saline with Tween-80): 104 % of control
- T/C (dose: 20.0 mg/kg/injection, schedule: Q01DX009 (ip), vehicle: saline with Tween-80): 87 % of control

SMILES: COc1ccccc1NC(=O)Oc1c(C(C)C)cccc1C(C)C
- T/C [7]: 93 % of control
- T/C [9]: 90 % of control
- T/C [10]: 93 % of control

SMILES: C=CCOCC(O)CN(CC(C)C)CC(C)C (stereo unspecified)
- T/C [11]: 98 % of control
- T/C [12]: 104 % of control
- T/C [5]: 100 % of control

SMILES: CC(=O)C1=CC(=O)NC(=O)C1C(=O)CC(C)C (stereo unspecified)
- T/C [13]: 104 % of control
- T/C [14]: 89 % of control and 95 % of control
- T/C [11]: 92 % of control

SMILES: CC1C=CC(C(N)C(=O)O)O1 (stereo unspecified)
- T/C (dose: 12.5 mg/kg/injection, schedule: Q01DX009 (ip), vehicle: saline): 97 % of control
- T/C (dose: 25.0 mg/kg/injection, schedule: Q01DX009 (ip), vehicle: saline): 92 % of control

SMILES: CCCCn1cnc2c(N)ncnc21
- T/C [12]: 92 % of control
- T/C [6]: 87 % of control

SMILES: O=c1[nH]c2c(ccc3cnccc32)c2c1CCC2
- T/C (dose: 3.12 mg/kg/injection, schedule: Q01DX009 (ip), vehicle: suspension in saline): 97 % of control
- T/C (dose: 6.25 mg/kg/injection, schedule: Q01DX009 (ip), vehicle: suspension in saline): 104 % of control

SMILES: C/C=C/C(=O)OCC1CCN(C)C1 (stereo unspecified)
- T/C (dose: 50.0 mg/kg/injection, schedule: Q01DX009 (ip), vehicle: water): 98 % of control
- T/C (dose: 100.0 mg/kg/injection, schedule: Q01DX009 (ip), vehicle: water): 107 % of control
- T/C (dose: 200.0 mg/kg/injection, schedule: Q01DX009 (ip), vehicle: water): 90 % of control

SMILES: Cn1c(O)c(C=N)c(=O)[nH]c1=O
- T/C (dose: 75.0 mg/kg/injection, schedule: Q01DX009 (ip), vehicle: Klucel (hydroxypropylcellulose) (HPC)): 90 % of control
- T/C (dose: 300.0 mg/kg/injection, schedule: Q01DX009 (ip), vehicle: Klucel (hydroxypropylcellulose) (HPC)): 90 % of control

SMILES: CCC(N)Cc1ccc(OC)c(OC)c1 (stereo unspecified)
- T/C [6]: 97 % of control
- T/C [7]: 102 % of control
- T/C [9]: 105 % of control

SMILES: CCCCC(CCC)(CCN)CCCC
- T/C (dose: 1.0 mg/kg/injection, schedule: Q01DX009 (ip), vehicle: saline sonified): 102 % of control
- T/C (dose: 2.0 mg/kg/injection, schedule: Q01DX009 (ip), vehicle: saline sonified): 97 % of control
- T/C (dose: 4.0 mg/kg/injection, schedule: Q01DX009 (ip), vehicle: saline sonified): 100 % of control

SMILES: Oc1ccc(/C=N/NC(=S)NN2CCOCC2)nc1
- T/C [14]: 104 % of control
- T/C [11]: 103 % of control
- T/C [12]: 104 % of control
- T/C [5]: 108 % of control

SMILES: Cc1ccc(C(=O)/C=C/c2ccccc2)cc1
- T/C (dose: 25.0 mg/kg/injection, schedule: Q01DX009 (ip), vehicle: other): 100 % of control
- T/C [15]: 105 % of control
- T/C [16]: 107 % of control
- T/C (dose: 200.0 mg/kg/injection, schedule: Q01DX009 (ip), vehicle: other): 100 % of control

SMILES: CNC(=O)n1c(N)nc(-c2ccccc2)c1-c1ccccc1
- T/C [1]: 98 % of control
- T/C [2]: 98 % of control
- T/C [3]: 106 % of control
- T/C [4]: 107 % of control

SMILES: CC1(C)c2ccccc2C(C)(O)c2ccccc21
- T/C (dose: 50.0 mg/kg/injection, schedule: Q04DX003 (ip), vehicle: saline with Tween-80): 102 % of control
- T/C [17]: 111 % of control
- T/C [18]: 94 % of control

SMILES: CCc1c2cc3c(cc2cc2c4cc5c(cc4cc[n+]12)OCO5)OCO3 (tested in a mixture with another compound)
- T/C [13]: 103 % of control
- T/C (dose: 3.13 mg/kg/injection, schedule: Q01DX009 (ip), vehicle: Klucel (hydroxypropylcellulose) (HPC)): 106 % of control
- T/C [11]: 106 % of control

SMILES: CCSc1ccc2c(cc1=O)[C@@H](NC1OC(CO)C(O)C(O)C1O)CCc1cc(OC)c(OC)c(OC)c1-2 (stereo partly specified)
- T/C [15]: 101 % of control
- T/C [16]: 109 % of control

SMILES: C=C1Sc2ccccc2N1C
- T/C [12]: 96 % of control
- T/C [5]: 94 % of control

SMILES: CCOC(=O)C(=CN1CCCCC1)C(=O)OCC
- T/C [8]: 99 % of control
- T/C [17]: 95 % of control
- T/C (dose: 200.0 mg/kg/injection, schedule: Q01DX009 (ip), vehicle: saline with Tween-80): 100 % of control
- T/C [18]: 97 % of control
- T/C (dose: 400.0 mg/kg/injection, schedule: Q04DX003 (ip), vehicle: saline with Tween-80): 95 % of control

SMILES: O=C(Cc1ccc2cc3c(cc2c1)OCO3)NCCc1ccc2c(c1)OCO2
- T/C [7]: 105 % of control
- T/C [9]: 94 % of control
- T/C [10]: 91 % of control
